This is an account of results in PubChem BioAssay AID248 (DTP/NCI, 2004).

This experiment concerns L1210 leukemia ip in BDF1 mice, survival T/C. In words: NCI In Vivo Anticancer Drug Screen. Data for tumor model L1210 Leukemia (intraperitoneal) in B6D2F1 (BDF1) mice. Conditions: endpoint: mean survival time, higher = longer survival. A digest of the protocol:
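Value reflects the ratio of survival in compound-treated mice to survival in vehicle-treated controls, with both groups carrying the same transplanted tumor.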

[1] abbreviates: dose: 100.0 mg/kg/injection, schedule: Q04DX003 (ip), vehicle: Klucel (hydroxypropylcellulose) (HPC).
Where [2] appears, read: dose: 200.0 mg/kg/injection, schedule: Q04DX003 (ip), vehicle: Klucel (hydroxypropylcellulose) (HPC).
The mark [3] stands for this setting: dose: 100.0 mg/kg/injection, schedule: Q04DX003 (ip), vehicle: saline.
[4] abbreviates: dose: 200.0 mg/kg/injection, schedule: Q04DX003 (ip), vehicle: saline.
[5] abbreviates: dose: 100.0 mg/kg/injection, schedule: Q04DX003 (ip), vehicle: saline with Tween-80.
Setting [6] is: dose: 200.0 mg/kg/injection, schedule: Q04DX003 (ip), vehicle: saline with Tween-80.
[7] abbreviates: dose: 400.0 mg/kg/injection, schedule: Q04DX003 (ip), vehicle: saline with Tween-80.
Where [8] appears, read: dose: 100.0 mg/kg/injection, schedule: Q01DX009 (ip), vehicle: Klucel (hydroxypropylcellulose) (HPC).
Where [9] appears, read: dose: 200.0 mg/kg/injection, schedule: Q01DX009 (ip), vehicle: Klucel (hydroxypropylcellulose) (HPC).
[10] abbreviates: dose: 100.0 mg/kg/injection, schedule: Q01DX009 (ip), vehicle: saline.
Where [11] appears, read: dose: 200.0 mg/kg/injection, schedule: Q01DX009 (ip), vehicle: saline.
Setting [12] is: dose: 400.0 mg/kg/injection, schedule: Q01DX009 (ip), vehicle: saline.
Setting [13] is: dose: 50.0 mg/kg/injection, schedule: Q01DX009 (ip), vehicle: saline with Tween-80.
Where [14] appears, read: dose: 100.0 mg/kg/injection, schedule: Q01DX009 (ip), vehicle: saline with Tween-80.
[15] abbreviates: dose: 400.0 mg/kg/injection, schedule: Q01DX009 (ip), vehicle: saline with Tween-80.
The mark [16] stands for this setting: dose: 100.0 mg/kg/injection, schedule: Q01DX001 (ip), vehicle: saline.
Setting [17] is: dose: 200.0 mg/kg/injection, schedule: Q01DX001 (ip), vehicle: saline.
The mark [18] stands for this setting: dose: 400.0 mg/kg/injection, schedule: Q01DX001 (ip), vehicle: saline.
Where [19] appears, read: dose: 100.0 mg/kg/injection, schedule: Q01DX001 (ip), vehicle: carboxymethylcellulose (CMC).
[20] abbreviates: dose: 200.0 mg/kg/injection, schedule: Q01DX001 (ip), vehicle: carboxymethylcellulose (CMC).
[21] abbreviates: dose: 400.0 mg/kg/injection, schedule: Q01DX001 (ip), vehicle: carboxymethylcellulose (CMC).
The mark [22] stands for this setting: dose: 400.0 mg/kg/injection, schedule: Q04DX003 (ip), vehicle: Klucel (hydroxypropylcellulose) (HPC).
Where [23] appears, read: dose: 200.0 mg/kg/injection, schedule: Q01DX009 (ip), vehicle: saline with Tween-80.
[24] abbreviates: dose: 50.0 mg/kg/injection, schedule: Q01DX009 (ip), vehicle: saline.

Where “and” joins values, the source holds several entries; their conditions need not be identical. Equal values may be shown once. Toxic doses and inconclusive results are not listed.

`COC(=O)/C=C(/Oc1cccc(C)c1)C(=O)OC`: the T/C by setting is: (dose: 100.0 mg/kg/injection, schedule: Q04DX003 (ip), vehicle: other) 101 % of control; (dose: 200.0 mg/kg/injection, schedule: Q04DX003 (ip), vehicle: other) 96 % of control; (dose: 400.0 mg/kg/injection, schedule: Q04DX003 (ip), vehicle: other) 96 % of control.

With `CCOC(=O)C1(C(=O)OCC)CCC(O)N1C(=O)c1ccccc1[N+](=O)[O-]` (stereo not given), the T/C is 97 % of control (dose: 50.0 mg/kg/injection, schedule: Q04DX003 (ip), vehicle: Klucel (hydroxypropylcellulose) (HPC)); 91 % of control under setting [1]; 91 % of control under setting [2].

On to `CCCCCCCCCCCCCCCCOC(=O)C[n+]1cccc(C(N)=O)c1`, for which the T/C was 92 % of control under setting [3] and 99 % of control under setting [4].

Turning to `CCCCC(CC)(CO)CO`, the T/C runs as follows: under setting [5], 110 % of control; under setting [6], 100 % of control; under setting [7], 111 % of control.

With `NC(=O)N1C(=O)C=CC1=O`, the T/C runs as follows: (dose: 50.0 mg/kg/injection, schedule: Q04DX002 (ip), vehicle: Klucel (hydroxypropylcellulose) (HPC)) 96 % of control; under setting [8], 105 % of control; (dose: 100.0 mg/kg/injection, schedule: Q04DX002 (ip), vehicle: Klucel (hydroxypropylcellulose) (HPC)) 100 % of control; under setting [9], 91 % of control.

Regarding `CN(C)C(=O)CCl`, the T/C runs as follows: under setting [10], 96 % of control; under setting [11], 98 % of control; under setting [12], 104 % of control.

For `CC1(C#N)CC(C#N)Nc2ccccc2N1` (stereo not given), the T/C reads like this: under setting [10], 104 % of control; under setting [11], 98 % of control.

Take `CCNc1nnc(N=Nc2ccccc2)s1`: the T/C is, setting by setting: (dose: 12.5 mg/kg/injection, schedule: Q01DX009 (ip), vehicle: saline with Tween-80) 97 % of control; (dose: 25.0 mg/kg/injection, schedule: Q01DX009 (ip), vehicle: saline with Tween-80) 102 % of control and 92 % of control; under setting [13], 86 % of control; under setting [14], 91 % of control; (dose: 100.0 mg/kg/injection, schedule: Q04DX002 (ip), vehicle: saline with Tween-80) 170 % of control; (dose: 200.0 mg/kg/injection, schedule: Q04DX002 (ip), vehicle: saline with Tween-80) 98 % of control. Further, the T/C is, setting by setting: under setting [15], 91 % of control; (dose: 400.0 mg/kg/injection, schedule: Q04DX002 (ip), vehicle: saline with Tween-80) 98 % of control.

As to `NNC(=O)C1CC1`, the T/C (dose: 12.5 mg/kg/injection, schedule: Q04DX003 (ip), vehicle: saline) is 101 % of control; the T/C (dose: 25.0 mg/kg/injection, schedule: Q04DX003 (ip), vehicle: saline) is 97 % of control; the T/C (dose: 50.0 mg/kg/injection, schedule: Q04DX003 (ip), vehicle: saline) is 96 % of control and 103 % of control.

Consider `C1CN2CCC1CC2`, for which the T/C (dose: 10.0 mg/kg/injection, schedule: Q01DX001 (ip), vehicle: saline) is 93 % of control; the T/C under setting [13] was 98 % of control; the T/C under setting [14] is 97 % of control; the T/C under setting [5] is 106 % of control; the T/C under setting [6] is 93 % of control.

Regarding `O=C1CCCC2C1CCCC21OCCO1` (stereo not given), the T/C under setting [16] was 96 % of control, the T/C under setting [17] was 96 % of control and the T/C under setting [18] was 96 % of control.

Regarding `CCOC(=O)C1(Br)CCN(S(=O)(=O)c2ccc(C)cc2)c2ccccc2C1=O` (stereo not given), the T/C was 108 % of control under setting [19], 103 % of control under setting [20] and 100 % of control under setting [21].

With `Cn1c(=O)c2ncn(CC(O)COc3ccccc3)c2n(C)c1=O` (stereo not given), the T/C under setting [1] is 102 % of control, the T/C under setting [2] is 104 % of control and the T/C under setting [22] is 101 % of control.

Turning to `O=C(OCC1OC(n2ccc(=S)[nH]c2=O)C(OC(=O)c2ccccc2)C1OC(=O)c1ccccc1)c1ccccc1` (stereo not given), the T/C was 98 % of control (dose: 50.0 mg/kg/injection, schedule: Q01DX001 (ip), vehicle: saline); 95 % of control under setting [16]; 101 % of control under setting [17]; 104 % of control under setting [18].

For `COc1cc2c(cc1OC)C(Cc1cc3c(cc1[N+](=O)[O-])OCO3)=NCC2`, the T/C runs as follows: under setting [16], 96 % of control; under setting [17], 96 % of control; under setting [18], 93 % of control.

As to `C=C1C(=O)OC2CCC3OC3CCC12` (stereo not given) (tested in a mixture with another compound), the T/C is 103 % of control under setting [3] and 95 % of control under setting [4].

For `c1cc(N2CCOCC2)ccc1Cc1ccc(N2CCOCC2)cc1`, the T/C is 102 % of control under setting [8]; 93 % of control under setting [1]; 109 % of control under setting [9]; 101 % of control under setting [2]; 93 % of control under setting [22].

As for `O=[N+]([O-])c1cccc(/C=C/c2ccc(S(=O)(=O)F)cc2)c1`, the T/C by setting is: under setting [5], 95 % of control; under setting [6], 90 % of control.

As to `CC(C)CCc1nc2c(c(=O)n(C)c(=O)n2C)n1C`, the T/C is, setting by setting: (dose: 50.0 mg/kg/injection, schedule: Q01DX001 (ip), vehicle: carboxymethylcellulose (CMC)) 116 % of control; under setting [19], 103 % of control; under setting [20], 103 % of control; under setting [21], 103 % of control.

In the case of `CC1C(C)(C)P(=O)(Oc2ccc3ccccc3c2)C1(C)C` (stereo not given), the T/C runs as follows: under setting [5], 100 % of control; under setting [6], 97 % of control; under setting [7], 92 % of control.

As for `Cc1c(C)c(C(=O)O)c(C)c(C)c1C(=O)O`, the T/C under setting [14] was 96 % of control, the T/C under setting [23] is 97 % of control and the T/C under setting [15] is 102 % of control.

For `CCOC(=O)NP(NC(=O)NOC)NC(=O)OCC`, the T/C was 101 % of control under setting [19], 93 % of control under setting [20] and 101 % of control under setting [21].

With `O=C(CNC(=O)c1ccccc1)Oc1c(Cl)c(Cl)c(Cl)c(Cl)c1Cl`, the T/C is, setting by setting: (dose: 100.0 mg/kg/injection, schedule: Q01DX009 (ip), vehicle: other) 104 % of control; (dose: 200.0 mg/kg/injection, schedule: Q01DX009 (ip), vehicle: other) 98 % of control; (dose: 400.0 mg/kg/injection, schedule: Q01DX009 (ip), vehicle: other) 93 % of control.

Consider `CN1CCCC1=O`, for which the T/C by setting is: under setting [13], 91 % of control; under setting [14], 88 % of control; under setting [23], 102 % of control.

As for `O=COc1ccc([N+](=O)[O-])cc1`, the T/C reads like this: (dose: 25.0 mg/kg/injection, schedule: Q01DX009 (ip), vehicle: saline) 98 % of control; under setting [24], 95 % of control; under setting [10], 98 % of control; under setting [3], 101 % of control.

On to `C[n+]1cccc2c(C(=O)O)cccc21`, for which the T/C under setting [16] is 97 % of control and the T/C under setting [17] is 96 % of control.

Consider `Nc1ncnc(N)c1N=O`, for which the T/C under setting [24] was 107 % of control, the T/C under setting [10] is 91 % of control and the T/C under setting [11] was 101 % of control.

With `O=[N+]([O-])c1cc(Cl)cc2c1-c1ccc(Cl)cc1C2`, the T/C is 98 % of control under setting [1], 98 % of control under setting [2] and 98 % of control under setting [22].

`COC(CO)C(O)C(O)C=O` (stereo not given): the T/C is 93 % of control under setting [10], 97 % of control under setting [11] and 102 % of control under setting [12].
